≈ marks a conversion by molar mass, not a printed value.
Tests used:
E. coli ELZ4000 = experiment: Antibacterial activity, MIC, multi-drug resistant clinical isolate (Table 3); type: cell-based; details: Escherichia coli, ELZ4000, read-out: MIC ELZ4000
Source text: (§1) The antibacterial activity from a microbroth dilution method may be presented as the minimum inhibitory concentration (MIC in μg/mL). The MIC value is the lowest concentration of drug which prevents macroscopically visible growth under test conditions.
(§2) Antibacterial activity of test compounds against E. coli ELZ4000 and E. coli ELZ4251 multi-drug resistant clinical isolates is shown in Table 3.

E. coli ELZ4251 = experiment: as above; type: cell-based; details: Escherichia coli
Source text: as §1, §2

E. coli LZ3111 = experiment: Antibacterial activity, MIC, quinolone resistant strain (Table 2); type: cell-based; details: Escherichia coli, LZ3111, read-out: MIC LZ3111
Method in brief: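 Lowest concentration giving no macroscopically visible growth was taken as the MIC (μg/mL) after microbroth dilution testing.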

E. coli 25922 = experiment: Antibacterial activity, microbroth dilution MIC (Table 1); type: cell-based, Escherichia coli; details: Escherichia coli; microbroth dilution; control Gram-negative E. coli 25922 strain; read-out: MIC, 25922
Method in brief: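 Using broth microdilution, MIC endpoints (μg/mL) mark where visible growth no longer appears; the panel spans sensitive and control Gram-negative strains plus a Gram-positive strain.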

[1] = tested on: Pseudomonas aeruginosa (P. aeruginosa) 27853; experiment: Antibacterial activity, MIC (Table 5); type: cell-based; details: P. aeruginosa 27853, read-out: MIC, 27853
Method in brief: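 MIC in μg/mL from broth microdilution; endpoint is the lowest drug level giving no visible growth.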

[2] = tested on: Escherichia coli (E. coli) BAS849; experiment: Antibacterial activity, microbroth dilution MIC (Table 1); type: cell-based; details: microbroth dilution, super sensitive Gram-negative E. coli BAS849, read-out: MIC, BAS849
Method in brief: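 Broth microdilution; endpoint = no macroscopic growth; value = lowest inhibiting concn, μg/mL.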

[3] = tested on: Staphylococcus aureus (S. aureus) 29213; experiment: as above; type: cell-based; details: microbroth dilution, Gram-positive S. aureus 29213, read-out: MIC, 29213
Method in brief: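 In a microbroth dilution test, the minimum inhibitory concentration was defined as the lowest compound level preventing growth seen by eye, and was given in μg/mL.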

[4] = tested on: Acinetobacter baumannii (A. baumannii) BAA747; experiment: Antibacterial activity, MIC (Table 4); type: cell-based; details: A. baumannii BAA747, read-out: MIC, BAA747
Method in brief: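 Values are MICs in μg/mL, read as the lowest compound concentration at which no growth is visible by eye. They come from a microbroth dilution method.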

Row | SMILES | MIC (E. coli ELZ4000) | MIC (E. coli ELZ4251) | MIC (E. coli LZ3111) | MIC (E. coli 25922) | MIC [1] | MIC [2] | MIC [3] | MIC [4]
1 | CCc1c(-c2ccc3c(c2)cc(CNCC2CCOCC2)n3C)[nH]c(=O)c(C(=O)O)c1O.Cl [Cpd 227, 5-ethyl-4-hydroxy-6-(1-methyl-2-(((tetrahydro-2H-pyran-4-yl)methylamino)methyl)-1H-indol-5-yl)-2-oxo-1,2-dihydropyridine-3-carboxylic acid hydrochloride] | 12.5 to 150 µg/mL | 12.5 to 150 µg/mL | 12.5 to 150 µg/mL | 1 to 3.5 µg/mL | 12.5 to 150 µg/mL | < 1 µg/mL | 3.5 to 12.5 µg/mL | –
2 | CCc1c(-c2ccc3ncccc3c2)[nH]c(=O)c(C(=O)O)c1O [Cpd 20, 5-ethyl-4-hydroxy-2-oxo-6-(quinolin-6-yl)-1,2-dihydropyridine-3-carboxylic acid] | 12.5 to 150 µg/mL (≈ 40.3 to 483 µM) | 3.5 to 12.5 µg/mL (≈ 11.3 to 40.3 µM) | 3.5 to 12.5 µg/mL (≈ 11.3 to 40.3 µM) | 12.5 to 150 µg/mL (≈ 40.3 to 483 µM) | 12.5 to 150 µg/mL (≈ 40.3 to 483 µM) | 1 to 3.5 µg/mL (≈ 3.22 to 11.3 µM) | 12.5 to 150 µg/mL (≈ 40.3 to 483 µM) | –
3 | CCc1c(-c2ccc3c(c2)cc(CN2CCCC2CN(C)C)n3C)[nH]c(=O)c(C(=O)O)c1O (stereo not shown) [Cpd 202, 6-(2-((2-((dimethylamino)methyl)pyrrolidin-1-yl)methyl)-1-methyl-1H-indol-5-yl)-5-ethyl-4-hydroxy-2-oxo-1,2-dihydropyridine-3-carboxylic acid] | 12.5 to 150 µg/mL (≈ 27.6 to 331 µM) | 12.5 to 150 µg/mL (≈ 27.6 to 331 µM) | 3.5 to 12.5 µg/mL (≈ 7.73 to 27.6 µM) | 3.5 to 12.5 µg/mL (≈ 7.73 to 27.6 µM) | 12.5 to 150 µg/mL (≈ 27.6 to 331 µM) | < 1 µg/mL | 12.5 to 150 µg/mL (≈ 27.6 to 331 µM) | 12.5 to 150 µg/mL (≈ 27.6 to 331 µM)
4 | Cn1c(CN2CCCC2)cc2cc(-c3[nH]c(=O)c(C(=O)O)c(O)c3C3CC3)ccc21 [Cpd 323, 5-cyclopropyl-4-hydroxy-6-(1-methyl-2-(pyrrolidin-1-ylmethyl)-1H-indol-5-yl)-2-oxo-1,2-dihydropyridine-3-carboxylic acid] | 12.5 to 150 µg/mL (≈ 30.7 to 368 µM) | 3.5 to 12.5 µg/mL (≈ 8.59 to 30.7 µM) | 3.5 to 12.5 µg/mL (≈ 8.59 to 30.7 µM) | 12.5 to 150 µg/mL (≈ 30.7 to 368 µM) | 12.5 to 150 µg/mL (≈ 30.7 to 368 µM) | 1 to 3.5 µg/mL (≈ 2.45 to 8.59 µM) | 12.5 to 150 µg/mL (≈ 30.7 to 368 µM) | 12.5 to 150 µg/mL (≈ 30.7 to 368 µM)
5 | Cn1c(CNCC2CC2)cc2cc(-c3[nH]c(=O)c(C(=O)O)c(O)c3C3CC3)ccc21 [Cpd 325, 5-cyclopropyl-6-(2-((cyclopropylmethylamino)methyl)-1-methyl-1H-indol-5-yl)-4-hydroxy-2-oxo-1,2-dihydropyridine-3-carboxylic acid] | 3.5 to 12.5 µg/mL (≈ 8.59 to 30.7 µM) | 1 to 3.5 µg/mL (≈ 2.45 to 8.59 µM) | 3.5 to 12.5 µg/mL (≈ 8.59 to 30.7 µM) | 12.5 to 150 µg/mL (≈ 30.7 to 368 µM) | 12.5 to 150 µg/mL (≈ 30.7 to 368 µM) | 3.5 to 12.5 µg/mL (≈ 8.59 to 30.7 µM) | 12.5 to 150 µg/mL (≈ 30.7 to 368 µM) | 12.5 to 150 µg/mL (≈ 30.7 to 368 µM)
6 | CCc1c(-c2ccc3c(c2)cc(CN(C)C2CCCC2)n3C)[nH]c(=O)c(C(=O)O)c1O.Cl [Cpd 211, 6-(2-((cyclopentyl(methyl)amino)methyl)-1-methyl-1H-indol-5-yl)-5-ethyl-4-hydroxy-2-oxo-1,2-dihydropyridine-3-carboxylic acid hydrochloride] | 12.5 to 150 µg/mL | 12.5 to 150 µg/mL | 3.5 to 12.5 µg/mL | 1 to 3.5 µg/mL | 12.5 to 150 µg/mL | < 1 µg/mL | 3.5 to 12.5 µg/mL | –
7 | CCc1c(-c2ccc3c(c2)cc(CN2C[C@H]4CCC[C@@H](N)[C@H]4C2)n3C)[nH]c(=O)c(C(=O)O)c1O [Cpd 284, 6-(2-(((3aR,4R,7aS)-4-amino-1H-isoindol-2(3H,3aH,4H,5H,6H,7H,7aH)-yl)methyl)-1-methyl-1H-indol-5-yl)-5-ethyl-4-hydroxy-2-oxo-1,2-dihydropyridine-3-carboxylic acid] | 12.5 to 150 µg/mL (≈ 26.9 to 323 µM) | 12.5 to 150 µg/mL (≈ 26.9 to 323 µM) | 3.5 to 12.5 µg/mL (≈ 7.53 to 26.9 µM) | 1 to 3.5 µg/mL (≈ 2.15 to 7.53 µM) | 3.5 to 12.5 µg/mL (≈ 7.53 to 26.9 µM) | < 1 µg/mL | 12.5 to 150 µg/mL (≈ 26.9 to 323 µM) | –
8 | CCc1c(-c2ccc3c(c2)cc(CNCCN(C)C)n3C)[nH]c(=O)c(C(=O)O)c1O [Cpd 302, 6-(2-((2-(dimethylamino)ethylamino)methyl)-1-methyl-1H-indol-5-yl)-5-ethyl-4-hydroxy-2-oxo-1,2-dihydropyridine-3-carboxylic acid] | 12.5 to 150 µg/mL (≈ 30.3 to 364 µM) | 3.5 to 12.5 µg/mL (≈ 8.49 to 30.3 µM) | 3.5 to 12.5 µg/mL (≈ 8.49 to 30.3 µM) | 1 to 3.5 µg/mL (≈ 2.42 to 8.49 µM) | 12.5 to 150 µg/mL (≈ 30.3 to 364 µM) | < 1 µg/mL | 12.5 to 150 µg/mL (≈ 30.3 to 364 µM) | 3.5 to 12.5 µg/mL (≈ 8.49 to 30.3 µM)
9 | CCc1c(-c2ccc3c(c2)cc(CN2CC4CC2CN4)n3C)[nH]c(=O)c(C(=O)O)c1O (stereo not shown) [Cpd 182, 6-(2-(2,5-diazabicyclo[2.2.1]heptan-2-ylmethyl)-1-methyl-1H-indol-5-yl)-5-ethyl-4-hydroxy-2-oxo-1,2-dihydropyridine-3-carboxylic acid] | 12.5 to 150 µg/mL (≈ 29.6 to 355 µM) | 12.5 to 150 µg/mL (≈ 29.6 to 355 µM) | 3.5 to 12.5 µg/mL (≈ 8.28 to 29.6 µM) | 12.5 to 150 µg/mL (≈ 29.6 to 355 µM) | 12.5 to 150 µg/mL (≈ 29.6 to 355 µM) | 1 to 3.5 µg/mL (≈ 2.37 to 8.28 µM) | 12.5 to 150 µg/mL (≈ 29.6 to 355 µM) | –

Reference: patent publication US9409905B2, “Antibacterial compounds and methods for use” (PTC THERAPEUTICS, INC., priority 2011, dated 2016)
